Measured values taken from patent publication EP0727211A1, “Use of src SH2 specific compounds to treat a bone resorption disease” (SMITHKLINE BEECHAM CORPORATION, priority 1995, dated 1996).

Molecular target: T1, human p85 SH2 domain (Homo sapiens, UniProt P27986)
T1 construct: SH2 domain of human p85 (amino acids 321-440); made in house; host or cells: E. coli (pGEX-3X)
Assay: SH2 domain / pY peptide binding assay (ELISA-based, 96 well plate), p85 SH2
Conditions: for Ki: Ki calculated from IC50 by the expanded equation, Table II; for IC50: cloned human SH2 domain fusion protein, 0.1 uM biotinylated pY peptide, Table I
Description: The inhibitory activity of compounds at the different human SH2 domains was determined in vitro using SH2 domains expressed as fusion proteins in E. coli. The SH2 domains used herein were the human forms of the src SH2 domain, Grb2 SH2 domain, lck SH2 domain, fyn SH2 domain, SH-PTP2 SH2 domain, p85 SH2 domain and hcp SH2 domain.
Fusion proteins having the structure GST-X-SH2 were prepared as described in the GST gene fusion kit system available from Pharmacia (New Jersey). GST is the tagging sequence glutathione s-transferase epitope (SEQ ID NO: 8) for fyn, Grb2 and SH-PTP2 and is the tagging sequence glutathione s-transferase epitope (SEQ ID NO: 9) for p85. SH2 refers to the SH2 domains of fyn, Grb2, p85 and SH-PTP2 which were expressed and purified using glutathione Sepharose 4B (Pharmacia) according to "Current Protocols in Molecular Biology", ed. FM Ausubel et al., pub. John Wiley and Sons, Inc., (1995), p 16.7.1. X is an appropriate linker, preferably of 6 to 21 base pairs, used to keep the SH2 construct in frame and complement cloning. As such, the sequence of X is not critical. One skilled in the art can readily construct the appropriate linker. The DNA sequence encoding each GST-X-SH2 fusion protein was designed such that the indicated restriction sites (BamH1 and EcoRI) flank the SH2 region. The vector used in the instant experiments was the E. coli expression vector pGEX-2T (Pharmacia) for fyn, Grb2 and SH-PTP2, and pGEX-3X (Pharmacia) for p85. Each of these vectors result in SH2 constructs having additional C-terminal amino acids as described below.
Human p85 SH2 domain: The sequence encoding the SH2 domain of human p85 (amino acids 321-440) (Skolnik, E. et al., Cell 65, 83-90 (1991)) was cloned into the BamHI and EcoRI sites of the expression vector pGEX-3X. The SH2 domain including the additional C-terminal amino acids asparagine-serine-serine (SEQ ID NO: 11)was cloned by PCR techniques known to those skilled in the art to yield the expressed fusion protein GST-X-p85.
The binding assays for the SH2 domains and pY peptides were performed in an ELISA-based 96 well plate assay. In Millipore 96 well filter plates, hydrophilic Durapore® (pore size 0.65um Cat. No. MADVN6550), was added 2 ul (50% suspension) of Protein-G Sepharose (available from Pharmacia of N.J. Cat. No. 17-0618-01) and either 2 ul of 2 mg/ml of MAB178. (for gp120/SH2 domain fusion proteins src, lck and hcp) or 0.25 ul of anti-GST polyclonal antisera (available from Pharmacia of N.J.) (for GST/SH2 domain fusion proteins fyn, Grb2, p85 and SH-PTP2). 10 pmol of the subject SH2 domain fusion protein were added to their respective wells. The volume was brought to 100 ul with TBS-T (tris buffered saline plus 0.05% tween-20), incubated and shaken at room trmperature for 1 hr. then washed 1x with TBS-T (4°C). 90 ul of TBS-T were then added to each well. Specific pY biotinylated peptides were diluted to a concentration of 1.0 uM in TBS-T (these peptides can be obtained from Bachem Bioscience of Pennsylvania, Genosys Biotechnologies of Texas and California Peptide Research of California). 10 ul was aliquoted per well to yield a final concentration of 0.1 uM (approx, the Kd for each SH2 domain/peptide pair) and a final volume of 100 ul. The assay plates were incubated until equilibrium binding was attained (3 hr at 4°C with shaking). The assay plates were washed 2 X per well TBS-T (4°C), then 100 ul of SABC (Strepavidin biotinylated horseradish peroxidase complex, available from the Zymed corporation of California cat. no. 93-0043, 1 drop reagent A (streptavidin) and 1 drop of reagent B (AH-biotin conjugated-horseradish peroxidase) per 10 ml of TBS-T, incubated at 37°C for 30 minutes, then cooled to 4°C) was added per well, then incubated at 4°C for 30-60 minutes. The plates were then washed 4 X with TBS-T (4°C) (250 ul/well)/wash). 100 ul of 1 mg/ml OPD (o-phenyldiamine, Sigma Chemical Corporation, St. Louis Missouri) in Citrate Buffer was added per well. […]

T1 sequence (P27986 321-440): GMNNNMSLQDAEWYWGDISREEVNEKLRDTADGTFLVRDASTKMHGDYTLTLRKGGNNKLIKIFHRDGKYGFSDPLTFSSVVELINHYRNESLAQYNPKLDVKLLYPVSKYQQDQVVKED

“4-acetamido-benzamido-trans-4-methyl-cyclohexyl-N-1-(amino-R-2-(methoxy methyl)-pyrrolidine) carboxamide [Compound 8]” was tested, and the Ki was greater than 1000 µM and the IC50 was greater than 300 µM.

`Cc1nnc(SCC2=C(C(=O)O)N3C(=O)[C@@H](NC(=O)C(N)c4ccc(C(=O)O)cc4)[C@H]3SC2)s1` (stereo partly drawn) [Compound 1, 7-[D,L-α-Amino-α-(4-carboxyphenyl)acetamido]-3-[2-(5-methyl-1,3,4-thiadiazolyl)thiomethyl]Δ^3-cephem-4-carboxylic Acid] was tested, and the Ki was greater than 1000 µM and the IC50 was greater than 300 µM.

`N[C@@H](Cc1cc(Br)c(Oc2ccc(O)c(Cc3ccc(O)nn3)c2)c(Br)c1)C(=O)O` [Compound 2, L-3,5-Dibromo-3'-(6-oxo-3(1H)-pyridazinylmethyl)-thyronine] gave a Ki greater than 1000 µM and an IC50 greater than 300 µM.

`Cc1nc2sc3c(c2c2[nH][nH]c(=O)c12)CCC1(C3)OCCO1` [Compound 3, 8,8-Ethylenedioxy-2,3,7,8,9,10-hexahydro-4-methyl-1H-benzo[b]thieno[2,3-b]pyrazolo[3,4-d]pyridin-3-one] showed a Ki greater than 1000 µM and an IC50 greater than 300 µM.

Work on `Cc1ccc(C(=O)c2ccc(C(=O)c3ccc(CC=O)cc3)cc2)cc1` [Compound 4, 4-[4-(4-Methylbenzoyl)benzoyl]phenylacetaldehyde] yielded a Ki greater than 1000 µM and an IC50 greater than 300 µM.

In the case of `Cc1nc2sc3c(c2c2c1c(=O)[nH]n2C)CCC1(C3)OCCO1` [Compound 5, 1,4-Dimethyl-8,8-ethylenedioxy-2,3,7,8,9,10-hexahydro-1H-benzo[b]thieno[2,3-b]pyrazolo[3,4-d]pyridin-3-one], the Ki is reported as greater than 1000 µM and the IC50 is reported as greater than 300 µM.

For `CCCCCCNC(=O)[C@H]1CC[C@H](CNC(=O)c2ccc([N+](=O)[O-])cc2)CC1` [Compound 7, 4-nitro-benzamido-trans-4-methyl-cyclohexyl-N-hexyl carboxamide], the Ki was greater than 1000 µM and the IC50 was greater than 300 µM.

With `CCCNC(=O)[C@H]1CC[C@H](CNC(=O)/C=C/c2ccc(C=O)cc2)CC1` [Compound 9, 4-formyl-E-cinnamido-trans-4-methyl-cyclohexyl-N-(propyl) carboxamide] the Ki was greater than 1000 µM and the IC50 was greater than 300 µM.

Work on `Cc1nc2sc3c(c2c2[nH][nH]c(=O)c12)CCCC3` [Compound 10, 2,3,7,8,9,10-Hexahydro-4-methyl-1H-benzo[b]thieno[2,3-b]pyrazolo[3,4-d]pyridin-3-one] yielded a Ki greater than 1000 µM and an IC50 greater than 300 µM.
